{"source": "patent US9181251B2", "about": "“Anti-malarial compounds from marine natural products” (University of Central Florida Research Foundation, Inc., priority 2012, dated 2015)", "key": {"[1]": {"test": "Cytotoxicity against NIH 3T3 fibroblasts (MTS assay)", "type": "cell-based", "conditions": "mouse, Table 1, NIH 3T3 fibroblasts cells", "experimental": "(§1) Antiplasmodial activity was tested in P falciparum chloroquine resistant Dd2, and the cytotoxicity was assessed in NIH 3T3 fibroblasts cells.\n(§2) Asynchronous cultures were exposed to different concentrations of inhibitor for 72 hrs. […] The cytotoxicity against NIH 3T3 fibroblasts was evaluated using an MTS assay [(3-(4,5-dimethylthiazol-2-yl)-5-(3-carboxymethoxyphenyl)-2-(4-sulfophenyl)-2H-tetrazolium), CellTiter 96® Aqueous non-radioactive cell proliferation assay, Promega"}, "[2]": {"system": "P. falciparum chloroquine-resistant Dd2 strain", "test": "Antiplasmodial activity, SYBR Green I fluorescence-based assay", "type": "cell-based", "conditions": "for Selectivity: cytotoxicity IC50 (NIH 3T3) over Dd2 IC50", "experimental": "Fractions were derived from 20 different marine species. […] All fractions were then analyzed by LC-MS to identify active extracts with the greatest potential for novelty.\nas §1, §2"}, "[3]": {"system": "NIH 3T3 fibroblasts", "test": "Cytotoxicity against NIH 3T3 fibroblasts (MTS assay)", "type": "cell-based", "conditions": "Table 2, MTS assay", "experimental": "as §1, §2"}, "[4]": {"conditions": "has been shown, no source given; cited from earlier work"}, "[5]": {"conditions": "reported in the past, Gutierrez et. al. Pharmaceutical Biol. 2005, 43, 762-765; cited from earlier work"}, "[6]": {"conditions": "Plasmodium falciparum, Table 1, P falciparum chloroquine resistant Dd2, read-out: Dd2 IC50"}, "[7]": {"conditions": "Plasmodium falciparum, Table 2, chloroquine-resistant Dd2 strain, asynchronous cultures, 72 hrs, read-out: P. falciparum IC50"}, "[8]": {"conditions": "Table 2, chloroquine-resistant Dd2 strain, asynchronous cultures, 72 hrs, read-out: P. falciparum IC50"}}, "note": "Where two headings read alike, the source gives them in different places.", "data": [{"molecule": "COc1ccc(/C=C/CCCCC(C)[C@H](O)[C@@H](O)C2NC(=O)C[C@@H](O)CNC(=O)CNC(=O)[C@@H](Cc3c(C(=O)O)[nH]c4ccccc34)NC(=O)CN(C)C(=O)C[C@@]3(O)NC(=O)[C@H](O)C3NC(=O)[C@H]2O)cc1", "note": "(stereo partly shown) [Compound 4, microsclerodermin A]", "values": [{"measurement": "IC50", "setting": "[1]", "result": 3.53, "unit": "µM"}, {"measurement": "IC50", "setting": "[2]; Plasmodium falciparum, DD2", "result": 0.73, "unit": "µM"}, {"measurement": "IC50", "setting": "[2]; Plasmodium falciparum, DD2, read-out: Dd2 IC50", "result": 0.075, "unit": "µM"}, {"measurement": "Selectivity", "setting": "[2]; Table 1", "result": 47.07}]}, {"molecule": "C/C1=C/C(=O)C/C(C)=C/CC(C)(C)/C=C/C(=O)[C@@H](C)CCC1", "note": "[Compound 2]", "values": [{"measurement": "IC50", "setting": "[1]; NIH 3T3 fibroblast cells", "result": 21.8, "unit": "µM"}, {"measurement": "IC50", "setting": "[2]; [6]", "result": 1.56, "unit": "µM"}, {"measurement": "Selectivity", "setting": "[2]; Table 1", "result": 13.94}]}, {"molecule": "NCC(c1c[nH]c2ccccc12)c1c[nH]c2ccccc12", "note": "[2,2 bisindol-3-ylethyl amine 9, 2,2 bisindol-3-ylethyl amine]", "values": [{"measurement": "IC50", "setting": "[3]; Mus musculus, NIH3T3", "result": 11.5, "unit": "µM"}, {"measurement": "IC50", "setting": "[2]; [7]", "result": 6.5, "unit": "µM"}]}, {"molecule": "Dragmacidin D [Dragmacidin D 11]", "values": [{"measurement": "IC50", "setting": "[3]", "result": 27.7, "unit": "µM"}, {"measurement": "IC50", "setting": "[2]; [8]", "result": 5.2, "unit": "µM"}]}, {"molecule": "O=C1NC[C@H](c2c[nH]c3cc(Br)ccc23)N=C1c1c[nH]c2cc(Br)ccc12", "note": "[Hamacanthin B 8, Hamacanthin B]", "values": [{"measurement": "IC50", "setting": "[3]", "result": 38.6, "unit": "µM"}, {"measurement": "IC50", "setting": "[2]; [8]", "result": "> 20.6", "unit": "µM"}]}, {"molecule": "CCC(=O)NCCc1c2c3c(ccnc3c3ncsc13)-c1ccccc1N2", "note": "[Compound 5, dercitamide]", "values": [{"measurement": "IC50", "setting": "[1]; NIH 3T3 fibroblast cells", "result": 14.8, "unit": "µM"}, {"measurement": "IC50", "setting": "[2]; Dd2 strain printed for compound 3 only, strain not printed for 4 and HB39.A10, read-out: IC50", "result": 2.3, "unit": "µM"}, {"measurement": "IC50", "setting": "[2]; [6]", "result": 1.05, "unit": "µM"}, {"measurement": "Selectivity", "setting": "[2]; Table 1", "result": 14.13}, {"measurement": "cytotoxicity", "setting": "[4]", "result": "very moderate cytotoxicity"}]}, {"molecule": "Brc1ccc2c(-c3cnc(-c4c[nH]c5cc(Br)ccc45)[nH]3)c[nH]c2c1", "note": "[Nortopsentin A, reference compound]", "values": [{"measurement": "IC50", "setting": "[3]; Mus musculus, NIH3T3", "result": 6, "unit": "µM"}, {"measurement": "IC50", "setting": "[2]; [7]", "result": 0.6, "unit": "µM"}]}, {"molecule": "CN1CC(c2c[nH]c3c(Br)c(Br)cc(O)c23)NCC1c1c[nH]c2cc(Br)ccc12", "note": "(stereo not shown) [Dragmacidin 6, Dragmacidin]", "values": [{"measurement": "IC50", "setting": "[3]", "result": 7.8, "unit": "µM"}, {"measurement": "IC50", "setting": "[2]; [8]", "result": 6.4, "unit": "µM"}]}, {"molecule": "O=C1N[C@@H](c2c[nH]c3cc(Br)ccc23)CN=C1c1c[nH]c2cc(Br)ccc12", "note": "[Hamacanthin A 7, Hamacanthin A]", "values": [{"measurement": "IC50", "setting": "[3]", "result": 30.4, "unit": "µM"}, {"measurement": "IC50", "setting": "[2]; [8]", "result": 3.2, "unit": "µM"}]}, {"molecule": "NC(N)=NCCSc1nc(-c2c[nH]c3cc(Br)ccc23)cnc1-c1c[nH]c2cc(Br)ccc12", "note": "[Dragmacidin G 12, Dragmacidin G]", "values": [{"measurement": "IC50", "setting": "[3]", "result": 7.8, "unit": "µM"}, {"measurement": "IC50", "setting": "[2]; [8]", "result": 6.4, "unit": "µM"}]}, {"molecule": "C/C1=C\\CC(C)(C)/C=C/C(=O)[C@@H](C)CCC[C@H](C)CC(=O)C1", "note": "[Compound 3]", "values": [{"measurement": "IC50", "setting": "[1]; NIH 3T3 fibroblast cells", "result": 20, "unit": "µM"}, {"measurement": "IC50", "setting": "[2]; Plasmodium falciparum, Dd2 strain printed for compound 3 only, strain not printed for 4 and HB39.A10, read-out: IC50", "result": 2.5, "unit": "µM"}, {"measurement": "IC50", "setting": "[2]; [6]", "result": 1.77, "unit": "µM"}, {"measurement": "Selectivity", "setting": "[2]; Table 1", "result": 11.34}]}, {"molecule": "COC1=C(Br)[C@H](O)[C@](O)(CC#N)C=C1Br", "note": "[Aeroplysin-1, aeroplysinin-1]", "values": [{"measurement": "anti-malarial activity", "setting": "[5]", "result": "anti-malarial activity"}]}]}
